Assay results reported in patent US5478809A, “TAN-1511, its derivatives, production and use thereof” (Takeda Chemical Industries, Ltd., priority 1992, dated 1995).
*1 amine or outer side, *2 acyl side, *3 side chain or, on linkers, in order; H or OH if unused. Where a SMILES comes first, the peptide text is derived from it. [ ]: non-standard residue; d: D form. The star is where a group is joined. Dhc(Pam)2 = S-[2,3-bis(hexadecanoyloxy)-(2S)-propyl]-(R)-cysteine, CCCCCCCCCCCCCCCC(=O)OC[C@@H](CSC[C@H](N[*:1])C(=O)[*:2])OC(=O)CCCCCCCCCCCCCCC; Propyl(2R-PamO,3-PamO) = CCCCCCCCCCCCCCCC(=O)OC[C@H](C*)OC(=O)CCCCCCCCCCCCCCC; Palmitoyl = CCCCCCCCCCCCCCCC(=O)*; Myristoyl = CCCCCCCCCCCCCC(=O)*

Legend:
[1] = system: mice; experiment: acute toxicity test to mice; type: in vivo, mouse; conditions: intraperitoneal administration, dose of 400 mg/kg
Method: No mouse administered intraperitoneally with Pam-Dhc(Pam)2 -Gly-Gly-Gly-Glu-Thr-Thr-OH (Compound 1) (SEQ ID No. 89) at a dose of 400 mg/kg was found dead.

[2] = system: spleen cells of mice; experiment: number of spleen cells in cyclophosphamide-treated mice (Experimental Example 2); type: in vivo, BALB/c mouse; conditions: cyclophosphamide singly, 250 mg/kg i.p.; saline/2% gum arabic mice = 100%
Method: (§1) A BALB/c mouse was injected intraperitoneally with cyclophosphamide dissolved in physiological saline solution at a dose of 250 mg/kg. From the next day, the animal was administered intraperitoneally for 3 consecutive days with TAN-1511 complex suspended in physiological saline solution containing 2% gum arabic at a dose of 2 mg/kg/day. On the day following completion of the administration, number of trypan blue chromophobic cells of spleen and peritoneal cavity was counted.

[3] = system: peritoneal cavity cells of mice; experiment: number of peritoneal cavity cells in cyclophosphamide-treated mice (Experimental Example 2); type: in vivo, BALB/c mouse; conditions: cyclophosphamide singly, 250 mg/kg i.p.; saline/2% gum arabic mice = 100%
Method: as §1

[4] = system: spleen cells of mice; experiment: number of spleen cells in cyclophosphamide-treated mice (Experimental Example 4); type: in vivo, BALB/c mouse; conditions: cyclophosphamide singly, 200 mg/kg i.p.; saline/2% gum arabic mouse = 100%
Method: A BALB/c mouse was injected intraperitoneally with cyclophosphamide dissolved in physiological saline solution at a dose of 200 mg/kg. From the day after next, the animal was administered intraperitoneally for 4 consecutive days with the test compound suspended in physiological saline solution containing 2% gum arabic. On the day following completion of the administration, number of trypan blue chromophobic cells of spleen was counted.

[5] = system: leukocytes of peripheral blood; experiment: enhancing the number of leukocytes in cyclophosphamide-treated mice; type: in vivo, CDF1/Crj mice; conditions: cyclophosphamide 150 mg/kg orally, then 5% glucose s.c. for 5 days; mice without cyclophosphamide = 100%
Method: Six week old female CDF1/Crj mice (5animals/group) were subjected to the experiment. […] From the next day, each animal was administered subcutaneously with the compound suspended in 5% glucose at the following dosages for five days once a day. On the next day after completion of the administration, about 100 μl of peripheral blood was collected from orbital vein using an EDTA-treated glass capillary. Then, the number of leukocytes was counted using a automatic cell analyzer (Sysmex K-2000, Toa Medical Electronics, Japan)

## Pam-Dhc(Pam)2 -Gly-Gly-Gly-Glu-Thr-Thr-OH (Palmitoyl-[Dhc(Pam)2]GGGETT-OH; SMILES CCCCCCCCCCCCCCCC(=O)N[C@@H](CSC[C@H](COC(=O)CCCCCCCCCCCCCCC)OC(=O)CCCCCCCCCCCCCCC)C(=O)NCC(=O)NCC(=O)NCC(=O)N[C@@H](CCC(=O)O)C(=O)N[C@H](C(=O)N[C@H](C(=O)O)[C@@H](C)O)[C@@H](C)O) [Compound 1]
[1]
  mice found dead / killed: No mouse

## O=P1(N(CCCl)CCCl)NCCCO1 (stereo not drawn) [Cyclophosphamide]
[2]
  Number of spleen cells (%): 11.8%
[3]
  Number of peritoneal cavity cells (%): 27.7%
[4]
  Number of abdominal cavity cells (%): 33.4%
[5]
  average value and standard deviation of leukocyte numbers: 41±11%

## CCCCCCCCCCCCCCCC(=O)OC[C@H](CSC[C@H](NC(=O)CCCCCCCCCCCCC)C(=O)NCC(=O)NCC(=O)NCC(=O)N[C@@H](CCC(=O)O)C(=O)N[C@H](C(=O)N[C@H](C(=O)O)[C@@H](C)O)[C@@H](C)O)OC(=O)CCCCCCCCCCCCCCC [Compound 9, (2R,6R)-2-Myr-amino-6,7-bis(PamO)-4-THT-Gly-Gly-Gly-Glu-Thr-Thr-OH] (Myristoyl-C(Propyl(2R-PamO,3-PamO))GGGETT-OH)
[1]
  mice found dead / killed: No mouse was killed
